Common to all, as to format: cell-based
One assay deals with T1, AKT2 (Homo sapiens, UniProt P31751).
T1 construct: expressed in transfected cells; host or cells: HEK293
The experiment in a line: Live cell AKT2 target engagement by NanoBRET competitive probe displacement. The settings on record: HEK293 cells transfected with kinase-NanoLuciferase fusion, 2 h at 37° C. Put shortly: (§1)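 Luminescence ratio 600/460 nm served as readout after HEK293 cells bearing transiently expressed kinase–NanoLuciferase fusions were exposed 2 h at 37 °C to test compound alongside an ATP-competitive fluorescent tracer near EC50. Extracellular signal was quenched by a luciferase inhibitor.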
In general terms: In BRET a luciferase serves as donor, and the signal depends on an acceptor being close.

The target of another assay is T2, AKT1 WT (Homo sapiens, UniProt P31749).
T2 construct: expressed in transfected cells; host or cells: HEK293
The assay is described as follows: Live cell AKT1 WT target engagement by NanoBRET competitive probe displacement. The following applies: HEK293 cells transfected with kinase-NanoLuciferase fusion, 2 h at 37° C. The gist of the method:
as §1

Assay [1] has as its system LAPC4 prostate cancer cells. The experiment in a line: Antiproliferative effects in LAPC4 cells (CellTiter Glo). The settings on record: LAPC4 cells (AKT1 E17K allele), read-out: LAPC4 proliferation IC50. Put shortly: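 IC50 values reflect 72 h compound treatment of cells plated at 1,000 per well, with CellTiter Glo luminescence as the viability read-out.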
In general terms: Cellular ATP, detected with luciferase, serves as a proxy for viable cell number.

Another assay has as its target T3, AKT1 E17K (Homo sapiens, UniProt P31749, E17K).
T3 construct: expressed in transfected cells; host or cells: HEK293
The experiment in a line: Live cell AKT1 E17K target engagement by NanoBRET competitive probe displacement. The following applies: HEK293 cells transfected with kinase-NanoLuciferase fusion, 2 h at 37° C. The gist of the method:
as §1

Read-outs that look alike come from different tables or passages of the source.

T1 sequence (P31751 whole entry): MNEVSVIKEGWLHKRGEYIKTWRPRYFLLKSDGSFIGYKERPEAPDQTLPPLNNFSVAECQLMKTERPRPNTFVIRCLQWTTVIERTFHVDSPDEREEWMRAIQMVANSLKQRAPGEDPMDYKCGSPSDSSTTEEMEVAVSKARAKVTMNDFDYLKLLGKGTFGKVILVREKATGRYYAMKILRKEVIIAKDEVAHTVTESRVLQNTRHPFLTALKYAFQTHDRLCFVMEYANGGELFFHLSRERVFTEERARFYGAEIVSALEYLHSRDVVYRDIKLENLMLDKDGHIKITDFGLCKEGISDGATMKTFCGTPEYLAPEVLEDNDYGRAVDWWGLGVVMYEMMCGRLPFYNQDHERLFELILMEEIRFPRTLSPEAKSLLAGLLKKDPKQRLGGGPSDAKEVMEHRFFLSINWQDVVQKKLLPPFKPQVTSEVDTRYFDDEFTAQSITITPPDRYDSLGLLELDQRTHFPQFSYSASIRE
T2 sequence (P31749 whole entry): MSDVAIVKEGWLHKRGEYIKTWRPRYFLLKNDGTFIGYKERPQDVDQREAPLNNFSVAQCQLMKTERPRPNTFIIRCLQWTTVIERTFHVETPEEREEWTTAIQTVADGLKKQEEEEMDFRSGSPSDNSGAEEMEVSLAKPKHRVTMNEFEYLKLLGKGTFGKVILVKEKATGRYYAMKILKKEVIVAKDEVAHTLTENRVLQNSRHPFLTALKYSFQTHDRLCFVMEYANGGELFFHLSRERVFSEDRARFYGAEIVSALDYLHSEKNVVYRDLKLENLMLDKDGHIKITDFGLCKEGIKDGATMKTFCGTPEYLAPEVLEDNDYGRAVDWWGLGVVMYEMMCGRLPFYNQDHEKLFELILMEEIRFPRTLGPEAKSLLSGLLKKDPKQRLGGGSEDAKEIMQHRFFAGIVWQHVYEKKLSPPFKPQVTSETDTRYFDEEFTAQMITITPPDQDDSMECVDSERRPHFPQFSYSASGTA
T3 sequence (P31749 whole entry E17K): as the sequence (P31749 whole entry) above, with E17K counted along it

In the case of `C=CC(=O)Nc1cccc(C)c1C(=O)N[C@H]1CCc2cc(-n3c(-c4cccnc4N)nc4ccc(-n5cccn5)nc43)ccc21` [Example 15, (S)-2-acrylamido-N-(5-(2-(2-aminopyridin-3-yl)-5-(1H-pyrazol-1-yl)-3H-imidazo[4,5-b]pyridin-3-yl)-2,3-dihydro-1H-inden-1-yl)-6-methylbenzamide], the IC50 on AKT2 is 377 nM; at AKT1 WT, 34.3 nM; in assay [1] (Homo sapiens, LAPC4, 72 h), 366 nM; at AKT1 E17K, 78.7 nM.
Turning to `C=CC(=O)N1CCC(N[C@H]2CCc3cc(-n4c(-c5cccnc5N)nc5ccc(C)nc54)ccc32)CC1` [Example 50, (S)-1-(4-((5-(2-(2-aminopyridin-3-yl)-5-methyl-3H-imidazo[4,5-b]pyridin-3-yl)-2,3-dihydro-1H-inden-1-yl)amino)piperidin-1-yl)prop-2-en-1-one], the IC50 at AKT2 amounted to 348 nM; on AKT1 WT, 17.6 nM; in assay [1] (Homo sapiens, LAPC4, 72 h) it was 161 nM; on AKT1 E17K, 95.1 nM.
Consider `C=CC(=O)N1CCCC(N[C@H]2CCc3cc(-n4c(-c5cccnc5N)nc5ccc(-n6cccn6)nc54)ccc32)CC1` (single isomer, unassigned) [Example 81, 1-((*)-4-(((S)-5-(2-(2-aminopyridin-3-yl)-5-(1H-pyrazol-1-yl)-3H-imidazo[4,5-b]pyridin-3-yl)-2,3-dihydro-1H-inden-1-yl)amino)azepan-1-yl)prop-2-en-1-one], for which the IC50 at AKT2 is 1200 nM; at AKT1 WT, 93.2 nM; in assay [1] (72 h) it was 7600 nM; at AKT1 E17K it was more than 1000 nM.
With `C=CC(=O)Nc1cc(F)ccc1C(=O)N[C@H]1CCc2cc(-n3c(-c4cccnc4N)nc4ccc(-n5cccn5)nc43)ccc21` [Example 21, (S)-2-acrylamido-N-(5-(2-(2-aminopyridin-3-yl)-5-(1H-pyrazol-1-yl)-3H-imidazo[4,5-b]pyridin-3-yl)-2,3-dihydro-1H-inden-1-yl)-4-fluorobenzamide], the IC50 is 74.8 nM on AKT2; 22.6 nM at AKT1 WT; 88.5 nM in assay [1] (Homo sapiens, LAPC4, 72 h); 32.8 nM on AKT1 E17K.
On the same counts, the results for `C=C(F)C(=O)Nc1cccc(C(=O)N[C@H]2CCc3cc(-n4c(-c5cccnc5N)nc5ccc(-n6cccn6)nc54)ccc32)c1` [Example 8, (S)-N-(5-(2-(2-aminopyridin-3-yl)-5-(1H-pyrazol-1-yl)-3H-imidazo[4,5-b]pyridin-3-yl)-2,3-dihydro-1H-inden-1-yl)-3-(2-fluoroacrylamido)benzamide] are 71.5 nM, 7.07 nM, 1120 nM and 112 nM.
In the case of `C=CC(=O)N1CCC(N[C@H]2CCc3cc(-n4c(-c5cccnc5N)nc5ccc(-n6cccn6)nc54)ccc32)C(C)(F)C1` (single isomer, unassigned) [Example 307, 1-((3*,4*)-4-(((S)-5-(2-(2-aminopyridin-3-yl)-5-(1H-pyrazol-1-yl)-3H-imidazo[4,5-b]pyridin-3-yl)-2,3-dihydro-1H-inden-1-yl)amino)-3-fluoro-3-methylpiperidin-1-yl)prop-2-en-1-one], the IC50 stood at 106 nM at AKT2, 294 nM at AKT1 WT, 345 nM in assay [1] (72 h) and 12.3 nM at AKT1 E17K.
As for `C=CC(=O)N1CCC(N[C@H]2CCc3cc(-n4c(-c5cccnc5F)nc5ccc(-n6cccn6)nc54)ccc32)CC1` [Example 251, 1-(4-{[(1S)-5-[2-(2-fluoropyridin-3-yl)-5-(pyrazol-1-yl)imidazo[4,5-b]pyridin-3-yl]-2,3-dihydro-1H-inden-1-yl]amino}piperidin-1-yl)prop-2-en-1-one], the IC50 at AKT2 turned out to be 280 nM; on AKT1 WT, 2160 nM; in assay [1] (Homo sapiens, LAPC4, 72 h), 2230 nM; on AKT1 E17K it was 113 nM.
As for `C=CC(=O)N1CCC(N[C@H]2CCc3cc(-n4c(-c5cccnc5N)nc5ccc(-n6cccn6)nc54)ccc32)C(C)C1` (single isomer, unassigned) [Example 99, 1-((3*,4*)-4-(((S)-5-(2-(2-aminopyridin-3-yl)-5-(1H-pyrazol-1-yl)-3H-imidazo[4,5-b]pyridin-3-yl)-2,3-dihydro-1H-inden-1-yl)amino)-3-methylpiperidin-1-yl)prop-2-en-1-one], the IC50 on AKT2 amounted to 560 nM; at AKT1 WT, 33.4 nM; in assay [1] (72 h), 716 nM; on AKT1 E17K it was 89.4 nM.
As for `C=CC(=O)N1CCC(N[C@H]2CCc3cc(-n4c(-c5cccnc5N)nc5ccc(-n6ccc(OC)n6)nc54)ccc32)CC1` [Example 206, 1-(4-{[(1S)-5-[2-(2-aminopyridin-3-yl)-5-(3-methoxypyrazol-1-yl)imidazo[4,5-b]pyridin-3-yl]-2,3-dihydro-1H-inden-1-yl]amino}piperidin-1-yl)prop-2-en-1-one], the IC50 on AKT2 was 24.8 nM; on AKT1 WT it was 80.5 nM; in assay [1] (Homo sapiens, LAPC4, 72 h), 62.7 nM; on AKT1 E17K, 7.65 nM.
Regarding `C=CC(=O)N1CCC(N[C@H]2CCc3cc(-n4c(-c5cccnc5N)nc5c(C#N)cc(-n6cccn6)nc54)ccc32)CC1` [Example 315, 2-(2-aminopyridin-3-yl)-3-[(1S)-1-{[1-(prop-2-enoyl)piperidin-4-yl]amino}-2,3-dihydro-1H-inden-5-yl]-5-(pyrazol-1-yl)imidazo[4,5-b]pyridine-7-carbonitrile], the IC50 on AKT2 turned out to be 70.3 nM; at AKT1 WT it was 183 nM; in assay [1] (Homo sapiens, LAPC4, 72 h), 120 nM; on AKT1 E17K it was 14.3 nM.
For the molecule `C=CC(=O)N1CCC(N[C@H]2CCc3cc(-n4c(-c5cccnc5N)nc5ccc(-n6ccc(C(C)C)n6)nc54)ccc32)CC1` [Example 281, 1-(4-{[(1S)-5-[2-(2-aminopyridin-3-yl)-5-(3-isopropylpyrazol-1-yl)imidazo[4,5-b]pyridin-3-yl]-2,3-dihydro-1H-inden-1-yl]amino}piperidin-1-yl)prop-2-en-1-one], the IC50 at AKT2 was 80.8 nM; on AKT1 WT, 254 nM; in assay [1] (Homo sapiens, LAPC4, 72 h) it was 253 nM; on AKT1 E17K, 15.4 nM.
For `C=CC(=O)NCc1ccccc1C(=O)N[C@H]1CCc2cc(-n3c(-c4cccnc4N)nc4ccc(-n5nccn5)nc43)ccc21` [Example 263, (S)-N-[(1S)-5-[2-(2-aminopyridin-3-yl)-5-(1,2,3-triazol-2-yl)imidazo[4,5-b]pyridin-3-yl]-2,3-dihydro-1H-inden-1-yl]-2-(prop-2-enamidomethyl)benzamide] the same measures were 153 nM, 2940 nM, 680 nM and 39.8 nM.
As for `C=CC(=O)N1CCC(N[C@H]2CCc3cc(-n4c(-c5cccnc5N)nc5ccc(-c6cc7n(n6)CCOC7)nc54)ccc32)CC1` [Example 121, (S)-1-(4-((5-(2-(2-aminopyridin-3-yl)-5-(6,7-dihydro-4H-pyrazolo[5,1-c][1,4]oxazin-2-yl)-3H-imidazo[4,5-b]pyridin-3-yl)-2,3-dihydro-1H-inden-1-yl)amino)piperidin-1-yl)prop-2-en-1-one], the IC50 came out at 358 nM at AKT2; 43.3 nM on AKT1 WT; 248 nM in assay [1] (Homo sapiens, LAPC4, 72 h); 174 nM at AKT1 E17K.
For `C=CC(=O)N1CCC[C@H]1C(=O)N[C@H]1CCc2cc(-n3c(-c4cccnc4N)nc4ccc(-n5cccn5)nc43)ccc21` [Example 26, (S)-1-acryloyl-N—((S)-5-(2-(2-aminopyridin-3-yl)-5-(1H-pyrazol-1-yl)-3H-imidazo[4,5-b]pyridin-3-yl)-2,3-dihydro-1H-inden-1-yl)pyrrolidine-2-carboxamide] the same measures were more than 10000 nM, more than 1000 nM, 2050 nM and more than 1000 nM.
`C=CC(=O)N1CCC(CN[C@H]2CCc3cc(-n4c(-c5cccnc5N)nc5ccc(-n6cccn6)nc54)ccc32)(OC)CC1` [Example 183, 1-[4-({[(1S)-5-[2-(2-aminopyridin-3-yl)-5-(pyrazol-1-yl)imidazo[4,5-b]pyridin-3-yl]-2,3-dihydro-1H-inden-1-yl]amino}methyl)-4-methoxypiperidin-1-yl]prop-2-en-1-one]: the IC50 at AKT2 turned out to be 633 nM; at AKT1 WT, 1260 nM; in assay [1] (Homo sapiens, LAPC4, 72 h) it was 1600 nM; on AKT1 E17K it was 99.4 nM.
On to `C=CC(=O)N1CCC(N[C@H]2CCc3cc(-n4c(-c5cccnc5N)nc5ccc(C6CC6)nc54)ccc32)C[C@H]1C` (single isomer, unassigned) [Example 210, 1-((2R,4*)-4-(((S)-5-(2-(2-aminopyridin-3-yl)-5-cyclopropyl-3H-imidazo[4,5-b]pyridin-3-yl)-2,3-dihydro-1H-inden-1-yl)amino)-2-methylpiperidin-1-yl)prop-2-en-1-one], for which the IC50 at AKT2 was found to be 272 nM; on AKT1 WT, 919 nM; in assay [1] (Homo sapiens, LAPC4, 72 h), 380 nM; at AKT1 E17K, 16.8 nM.
On the same counts, the results for `C=CC(=O)N1CCC(N[C@H]2CCc3cc(-n4c(-c5cccnc5N)nc5cc(F)c(-n6cccn6)nc54)ccc32)CC1` [Example 313, 1-(4-{[(1S)-5-[2-(2-aminopyridin-3-yl)-6-fluoro-5-(pyrazol-1-yl)imidazo[4,5-b]pyridin-3-yl]-2,3-dihydro-1H-inden-1-yl]amino}piperidin-1-yl)prop-2-en-1-one] are 113 nM, 518 nM, 347 nM and 21.8 nM.

These data come from patent US12570655B2, “Cysteine covalent modifiers of AKT1 and uses thereof” (Terremoto Biosciences, Inc., priority 2023, dated 2026).
